{"source": "PubChem BioAssay AID1259407", "about": "(Chemical Carcinogenesis Research Information System (CCRIS), 2018)", "test_system": "CCRIS mutagenicity, Ames/micronucleus/aberration tests", "experiment": "CCRIS mutagenicity studies", "key": {"[1]": {"details": "Test System: AMES SALMONELLA TYPHIMURIUM, Strain/Indicator: TA100, Metabolic Activation: NONE, Method: PREINCUBATION"}, "[2]": {"details": "Test System: AMES SALMONELLA TYPHIMURIUM, Strain/Indicator: TA100, Metabolic Activation: NONE, Method: STANDARD PLATE"}, "[3]": {"details": "Test System: AMES SALMONELLA TYPHIMURIUM, Strain/Indicator: TA100, Metabolic Activation: RAT, LIVER, S-9, AROCLOR 1254, Method: STANDARD PLATE"}, "[4]": {"details": "Test System: AMES SALMONELLA TYPHIMURIUM, Strain/Indicator: TA98, Metabolic Activation: NONE, Method: STANDARD PLATE"}}, "note": "Active and inactive are the calls of the source. How the calls were made is not given here."}
{"smiles": "CCN(N=O)C(N)=O", "values": [{"measurement": "mutagenic call", "setting": "End Point: IN VITRO CHROMOSOMAL ABERRATIONS, Test System: CHINESE HAMSTER V79-E CELLS, Metabolic Activation: NONE", "result": "inactive; negative"}, {"measurement": "mutagenic call", "setting": "End Point: IN VITRO MICRONUCLEUS, Test System: CHL/IU CELLS, Metabolic Activation: NONE", "result": "active; positive"}, {"measurement": "mutagenic call", "setting": "End Point: IN VIVO MICRONUCLEUS, Test System: BLOOD ERYTHROCYTES, Species: MOUSE, Strain/Sex: CD-1/MALE, Route: ORAL", "result": "active; positive"}, {"measurement": "mutagenic call", "setting": "Test System: AMES SALMONELLA TYPHIMURIUM, Strain/Indicator: TA98, Metabolic Activation: HAMSTER, LIVER, S-9, AROCLOR 1254 (30%), Method: PREINCUBATION", "result": "active; positive"}, {"measurement": "mutagenic call", "setting": "Test System: AMES SALMONELLA TYPHIMURIUM, Strain/Indicator: TA98, Metabolic Activation: NONE, Method: PREINCUBATION", "result": "active; positive"}, {"measurement": "mutagenic call", "setting": "Test System: AMES SALMONELLA TYPHIMURIUM, Strain/Indicator: TA98, Metabolic Activation: RAT, LIVER, S-9, AROCLOR 1254 (30%), Method: PREINCUBATION", "result": "active; positive"}, {"measurement": "mutagenic call", "setting": "Test System: AMES SALMONELLA TYPHIMURIUM, Strain/Indicator: TA100, Metabolic Activation: HAMSTER, LIVER, S-9, AROCLOR 1254 (30%), Method: PREINCUBATION", "result": "active; positive"}, {"measurement": "mutagenic call", "setting": "[1]", "result": "active; positive"}, {"measurement": "mutagenic call", "setting": "[2]", "result": "active; positive"}, {"measurement": "mutagenic call", "setting": "Test System: AMES SALMONELLA TYPHIMURIUM, Strain/Indicator: TA100, Metabolic Activation: RAT, LIVER, S-9, AROCLOR 1254 (30%), Method: PREINCUBATION", "result": "active; positive"}, {"measurement": "mutagenic call", "setting": "Test System: AMES SALMONELLA TYPHIMURIUM, Strain/Indicator: TA100, Metabolic Activation: RAT, LIVER, S-9, AROCLOR 1254, Method: PREINCUBATION", "result": "active; positive"}, {"measurement": "mutagenic call", "setting": "Test System: AMES SALMONELLA TYPHIMURIUM, Strain/Indicator: TA102, Metabolic Activation: RAT, LIVER, S-9, AROCLOR 1254, Method: PREINCUBATION", "result": "active; positive"}, {"measurement": "mutagenic call", "setting": "Test System: AMES SALMONELLA TYPHIMURIUM, Strain/Indicator: TA104, Metabolic Activation: RAT, LIVER, S-9, AROCLOR 1254, Method: PREINCUBATION", "result": "active; positive"}, {"measurement": "mutagenic call", "setting": "Test System: AMES SALMONELLA TYPHIMURIUM, Strain/Indicator: TA1535, Metabolic Activation: NONE", "result": "active; positive"}, {"measurement": "mutagenic call", "setting": "Test System: AMES SALMONELLA TYPHIMURIUM, Strain/Indicator: TA1535, Metabolic Activation: NONE, Method: PREINCUBATION", "result": "active; positive"}, {"measurement": "mutagenic call", "setting": "Test System: AMES SALMONELLA TYPHIMURIUM, Strain/Indicator: TA1535, Metabolic Activation: RAT, LIVER, S-9, AROCLOR 1254, Method: STANDARD PLATE", "result": "active; positive"}, {"measurement": "mutagenic call", "setting": "Test System: AMES SALMONELLA TYPHIMURIUM, Strain/Indicator: YG7104, Metabolic Activation: NONE, Method: PREINCUBATION", "result": "active; positive"}, {"measurement": "mutagenic call", "setting": "Test System: AMES SALMONELLA TYPHIMURIUM, Strain/Indicator: YG7108, Metabolic Activation: NONE, Method: PREINCUBATION", "result": "active; positive"}, {"measurement": "mutagenic call", "setting": "Test System: AMES SALMONELLA TYPHIMURIUM, Strain/Indicator: YG7112, Metabolic Activation: NONE, Method: PREINCUBATION", "result": "active; positive"}, {"measurement": "mutagenic call", "setting": "Test System: AMES SALMONELLA TYPHIMURIUM, Strain/Indicator: YG7113, Metabolic Activation: NONE, Method: PREINCUBATION", "result": "active; positive"}, {"measurement": "mutagenic call", "setting": "Test System: CHINESE HAMSTER OVARY, Strain/Indicator: CHO-K1-BH4 (HGPRT), Metabolic Activation: NONE, Method: STANDARD PLATE", "result": "active; positive"}, {"measurement": "mutagenic call", "setting": "Test System: CHINESE HAMSTER V-79, Strain/Indicator: V-79/6-THIOGUANINE, Metabolic Activation: NONE, Method: FLASK ASSAY", "result": "active; positive"}, {"measurement": "mutagenic call", "setting": "Test System: E. COLI B, Strain/Indicator: H/R30R, Metabolic Activation: NONE", "result": "active; positive"}, {"measurement": "mutagenic call", "setting": "Test System: E. COLI B, Strain/Indicator: HS30R, Metabolic Activation: NONE", "result": "active; positive"}, {"measurement": "mutagenic call", "setting": "Test System: E. COLI, Strain/Indicator: WP2, Metabolic Activation: NONE, Method: STANDARD PLATE", "result": "active; positive"}, {"measurement": "mutagenic call", "setting": "Test System: E. COLI, Strain/Indicator: WP2 UVRA, Metabolic Activation: NONE, Method: STANDARD PLATE", "result": "active; positive"}, {"measurement": "mutagenic call", "setting": "Test System: LacZ plasmid mouse (C57BL/6J transgenic), Strain/Indicator: LacZ Mutant frequency, Method: Bone marrow and liver harvested 35 days after last dose", "result": "active; positive"}, {"measurement": "mutagenic call", "setting": "Test System: LacZ transgenic mouse (Muta Mouse), Strain/Indicator: LacZ Mutant frequency, Method: Bone marrow and liver harvested 35 days after last dose", "result": "active; positive"}, {"measurement": "mutagenic call", "setting": "Test System: MOUSE LYMPHOMA, Strain/Indicator: L5178Y(TK+/TK-), Metabolic Activation: NONE, Method: MICROWELL", "result": "active; positive"}, {"measurement": "mutagenic call", "setting": "Test System: UDS HUMAN FIBROBLASTS, Strain/Indicator: THY INCORP (NON-S-PHASE), Metabolic Activation: NONE, Method: LIQUID SCINTILLATION COUNTING", "result": "active; positive"}, {"measurement": "mutagenic call", "setting": "Test System: UDS HUMAN TRACHEAL EPITHELIAL CELLS, Strain/Indicator: THY INCORP, Metabolic Activation: NONE, Method: AUTORADIOGRAPHY", "result": "active; positive"}, {"measurement": "mutagenic call", "setting": "Test System: UDS MOUSE SPERMATOGONIAL AND POSTSPERMATOGONIAL CELLS IN VIVO, Strain/Indicator: THYMIDINE INCORPORATION, Metabolic Activation: NONE, Method: AUTORADIOGRAPHY", "result": "active; positive"}]}
{"smiles": "c1ccc(N=Nc2ccccc2)cc1", "values": [{"measurement": "mutagenic call", "setting": "[1]", "result": "inactive; negative"}, {"measurement": "mutagenic call", "setting": "Test System: AMES SALMONELLA TYPHIMURIUM, Strain/Indicator: TA100, Metabolic Activation: RAT, LIVER, MICROSOMES, AROCLOR 1254, Method: PREINCUBATION", "result": "active; positive"}, {"measurement": "mutagenic call", "setting": "Test System: AMES SALMONELLA TYPHIMURIUM, Strain/Indicator: TA100, Metabolic Activation: RAT, LIVER, MICROSOMES, AZOBENZENE, Method: PREINCUBATION", "result": "inactive; negative"}, {"measurement": "mutagenic call", "setting": "Test System: AMES SALMONELLA TYPHIMURIUM, Strain/Indicator: TA100, Metabolic Activation: RAT, LIVER, MICROSOMES, Method: PREINCUBATION", "result": "inactive; negative"}, {"measurement": "mutagenic call", "setting": "[3]", "result": "active; positive"}, {"measurement": "mutagenic call", "setting": "Test System: AMES SALMONELLA TYPHIMURIUM, Strain/Indicator: TA100, Metabolic Activation: RAT, LIVER, S-9, POLYCHLORINATED BIPHENYLS, Method: PREINCUBATION", "result": "active; positive"}]}
{"smiles": "CC/C=C\\C=C\\CCCCCCOC(C)=O", "values": [{"measurement": "mutagenic call", "setting": "[4]", "result": "inactive; negative"}, {"measurement": "mutagenic call", "setting": "Test System: AMES SALMONELLA TYPHIMURIUM, Strain/Indicator: TA98, Metabolic Activation: RAT, LIVER, S-9, Method: STANDARD PLATE", "result": "inactive; negative"}, {"measurement": "mutagenic call", "setting": "[2]", "result": "inactive; negative"}, {"measurement": "mutagenic call", "setting": "Test System: AMES SALMONELLA TYPHIMURIUM, Strain/Indicator: TA100, Metabolic Activation: RAT, LIVER, S-9, Method: STANDARD PLATE", "result": "inactive; negative"}, {"measurement": "mutagenic call", "setting": "Test System: AMES SALMONELLA TYPHIMURIUM, Strain/Indicator: TA102, Metabolic Activation: NONE, Method: STANDARD PLATE", "result": "inactive; negative"}, {"measurement": "mutagenic call", "setting": "Test System: AMES SALMONELLA TYPHIMURIUM, Strain/Indicator: TA102, Metabolic Activation: RAT, LIVER, S-9, Method: STANDARD PLATE", "result": "inactive; negative"}]}
{"smiles": "O=C(/C=C/c1ccc([N+](=O)[O-])cc1)c1ccc([N+](=O)[O-])cc1", "values": [{"measurement": "mutagenic call", "setting": "[4]", "result": "active; positive"}, {"measurement": "mutagenic call", "setting": "Test System: AMES SALMONELLA TYPHIMURIUM, Strain/Indicator: TA98, Metabolic Activation: RAT, LIVER, S-9, AROCLOR 1254, Method: STANDARD PLATE", "result": "inactive; negative"}, {"measurement": "mutagenic call", "setting": "[2]", "result": "inactive; negative"}, {"measurement": "mutagenic call", "setting": "[3]", "result": "inactive; negative"}]}
{"smiles": "CO[C@]1(CC[C@@H](C)CO[C@@H]2O[C@H](CO)[C@@H](O)[C@H](O)[C@H]2O)O[C@H]2C[C@H]3[C@@H]4CC=C5C[C@@H](O[C@@H]6O[C@H](CO)[C@@H](O)[C@H](O[C@@H]7O[C@H](CO)[C@@H](O)[C@H](O)[C@H]7O)C6O[C@@H]6O[C@@H](C)[C@H](O)[C@@H](O)[C@H]6O)CC[C@]5(C)[C@H]4CC[C@]3(C)[C@H]2[C@@H]1C", "note": "(some centres not stated)", "values": [{"measurement": "mutagenic call", "setting": "[4]", "result": "inactive; negative"}, {"measurement": "mutagenic call", "setting": "Test System: AMES SALMONELLA TYPHIMURIUM, Strain/Indicator: TA98, Metabolic Activation: RAT, LIVER, S-9, PHENOBARBITAL, Method: STANDARD PLATE", "result": "inactive; negative"}, {"measurement": "mutagenic call", "setting": "[2]", "result": "inactive; negative"}, {"measurement": "mutagenic call", "setting": "Test System: AMES SALMONELLA TYPHIMURIUM, Strain/Indicator: TA100, Metabolic Activation: RAT, LIVER, S-9, PHENOBARBITAL, Method: STANDARD PLATE", "result": "inactive; negative"}]}
{"smiles": "C[C@]12CC[C@@H]3c4cc(O)c(O)cc4CC[C@H]3[C@@H]1CCC2=O", "values": [{"measurement": "mutagenic call", "setting": "Test System: Ames Salmonella typhimurium, Strain/Indicator: TA98, Metabolic Activation: None, Method: Standard plate", "result": "inactive; negative"}, {"measurement": "mutagenic call", "setting": "Test System: Ames Salmonella typhimurium, Strain/Indicator: TA98, Metabolic Activation: Rat, liver, S-9, Method: Standard plate", "result": "inactive; negative"}, {"measurement": "mutagenic call", "setting": "Test System: Ames Salmonella typhimurium, Strain/Indicator: TA100, Metabolic Activation: None, Method: Standard plate", "result": "inactive; negative"}, {"measurement": "mutagenic call", "setting": "Test System: Ames Salmonella typhimurium, Strain/Indicator: TA100, Metabolic Activation: Rat, liver, S-9, Method: Standard plate", "result": "inactive; negative"}]}
{"smiles": "CC(C)(C)c1ccc(C(=O)ON(OCc2ccccc2)C(=O)c2ccccc2)cc1", "values": [{"measurement": "mutagenic call", "setting": "[2]", "result": "active; positive"}]}
